Among the test systems are NCI-H460 lung; COLO 205 colon; IGROV1 ovarian; MDA-MB-231 breast; RPMI-8226 leukemia; OVCAR-3 ovarian; NCI-H226 lung; HCC-2998 colon; NCI/ADR-RES ovarian; HL-60(TB) leukemia.
What all share (experiment): DTP human tumour cell line panel, 48 h

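Protocol summary: plate cells (96-well), add compound at 5 concentrations, incubate 48 h, interpolate endpoints linearly. Here, GI50 denotes the concentration required for 50% inhibition of growth. At the TGI there is no net growth.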 Some results are limits rather than exact numbers.

For orientation: GI50 means the concentration at which growth is held to half of that of the control. As usually defined, the TGI is the concentration giving total growth inhibition. Read a high TGI as less potent growth arrest. Consider `CC(C)(O)Cn1c(=O)c(Oc2ccc(F)cc2F)cc2cnc(NC3CCOCC3)nc21`, for which the GI50 in the assay with NCI-H460 lung, with COLO 205 colon, in the assay on IGROV1 ovarian, in the assay on MDA-MB-231 breast, in the assay on RPMI-8226 leukemia and in the assay with OVCAR-3 ovarian was greater than 25 µM in each case. Also, the GI50 in the assay on NCI-H226 lung, with HCC-2998 colon, in the assay on NCI/ADR-RES ovarian and with HL-60(TB) leukemia was greater than 25 µM each time. In addition, the TGI in the assay on NCI-H460 lung, with COLO 205 colon, in the assay with IGROV1 ovarian, in the assay on MDA-MB-231 breast, with RPMI-8226 leukemia and with OVCAR-3 ovarian was greater than 25 µM in each case. Moreover, the TGI with NCI-H226 lung, in the assay with HCC-2998 colon, in the assay with NCI/ADR-RES ovarian and in the assay with HL-60(TB) leukemia was greater than 25 µM throughout.

For the compound `COc1ccc(C(=O)c2cc3c(N)c(C(=O)Nc4cccc(Cl)c4)sc3nc2C)cc1`, the GI50 in the assay on NCI-H460 lung is 1.12 µM; in the assay with COLO 205 colon, 1.67 µM; in the assay with IGROV1 ovarian, 1.76 µM; in the assay on MDA-MB-231 breast, 2.55 µM; in the assay on RPMI-8226 leukemia, 1.19 µM; with OVCAR-3 ovarian it was 1.01 µM. Moreover, the GI50 was 16 µM in the assay with NCI-H226 lung, 1.92 µM in the assay on HCC-2998 colon, 1.49 µM in the assay with NCI/ADR-RES ovarian and 1.09 µM in the assay on HL-60(TB) leukemia. Besides, the TGI in the assay on NCI-H460 lung is greater than 33.3 µM; in the assay with COLO 205 colon, greater than 33.3 µM; in the assay on IGROV1 ovarian, greater than 33.3 µM; with MDA-MB-231 breast it was greater than 33.3 µM; with RPMI-8226 leukemia, greater than 33.3 µM; with OVCAR-3 ovarian, 3.12 µM. Further, the TGI in the assay on NCI-H226 lung, in the assay on HCC-2998 colon, with NCI/ADR-RES ovarian and in the assay on HL-60(TB) leukemia was greater than 33.3 µM in each case.

Regarding `Cc1ccc(CCC(=O)Nc2ncc(Cc3cc(Cl)ccc3Cl)s2)o1`, the GI50 in the assay with NCI-H460 lung was 0.233 µM; in the assay on COLO 205 colon it was 0.194 µM; with IGROV1 ovarian it was 0.334 µM; with MDA-MB-231 breast, 0.388 µM; in the assay with RPMI-8226 leukemia, 0.335 µM; in the assay with OVCAR-3 ovarian, 0.172 µM. For the same compound, the GI50 is 0.901 µM in the assay on NCI-H226 lung, 0.312 µM with HCC-2998 colon, 0.159 µM with NCI/ADR-RES ovarian and 0.193 µM in the assay on HL-60(TB) leukemia. Also, the TGI with COLO 205 colon amounted to 0.658 µM; in the assay on IGROV1 ovarian, 20.8 µM; in the assay on MDA-MB-231 breast it was 3.35 µM; in the assay with RPMI-8226 leukemia, 61.1 µM; in the assay with OVCAR-3 ovarian it was 1.36 µM; in the assay with HCC-2998 colon, 6.41 µM. Moreover, the TGI with NCI/ADR-RES ovarian was 1.41 µM; in the assay with HL-60(TB) leukemia, 0.589 µM.

Consider `C=C1C(=O)OC(CCCCCCCC)C1C(=O)O` (stereo not drawn), for which the GI50 in the assay on NCI-H460 lung is 18.6 µM; in the assay on COLO 205 colon it was 18.2 µM; with IGROV1 ovarian it was 21.8 µM; with MDA-MB-231 breast, 17.7 µM; in the assay on RPMI-8226 leukemia, 15 µM; in the assay with OVCAR-3 ovarian, 7.66 µM. Besides, the GI50 is 19.8 µM in the assay with NCI-H226 lung, 17.5 µM with HCC-2998 colon, 21.6 µM in the assay on NCI/ADR-RES ovarian and 16.6 µM with HL-60(TB) leukemia. For the same compound, the TGI in the assay with NCI-H460 lung was determined as 37.5 µM; in the assay on COLO 205 colon it was 33.7 µM; in the assay on IGROV1 ovarian, 48.3 µM; in the assay on MDA-MB-231 breast it was 33.2 µM; in the assay with RPMI-8226 leukemia, 59.7 µM; in the assay with OVCAR-3 ovarian it was 19.5 µM. In addition, the TGI is 48.1 µM with NCI-H226 lung, 31.4 µM with HCC-2998 colon, 59.7 µM in the assay on NCI/ADR-RES ovarian and 46.4 µM in the assay on HL-60(TB) leukemia.

For the compound `CC(C)Oc1cc(OCC(=O)O)cc(C(=O)N(CCC(N)=O)C(=O)Nc2ccc(C(=O)O)cc2OC(C)C)c1`, the GI50 with NCI-H460 lung, with COLO 205 colon, in the assay on IGROV1 ovarian, with MDA-MB-231 breast, in the assay on RPMI-8226 leukemia and in the assay on OVCAR-3 ovarian was greater than 100 µM each time. Further, the GI50 with NCI-H226 lung, with HCC-2998 colon, in the assay on NCI/ADR-RES ovarian and with HL-60(TB) leukemia was greater than 100 µM each time. The TGI in the assay on NCI-H460 lung, in the assay with COLO 205 colon, in the assay with IGROV1 ovarian, in the assay with MDA-MB-231 breast, with RPMI-8226 leukemia and in the assay with OVCAR-3 ovarian was greater than 100 µM each time. In addition, the TGI in the assay on NCI-H226 lung, in the assay with HCC-2998 colon, in the assay with NCI/ADR-RES ovarian and with HL-60(TB) leukemia was greater than 100 µM in each case.

Regarding `Cc1nc2c(cnn2-c2ccnc3c(C(F)(F)F)cccc23)c(=O)o1`, the GI50 with NCI-H460 lung, in the assay with COLO 205 colon, in the assay on IGROV1 ovarian, in the assay with MDA-MB-231 breast, with RPMI-8226 leukemia and with OVCAR-3 ovarian was greater than 100 µM each time. Also, the GI50 in the assay with NCI-H226 lung, in the assay with HCC-2998 colon, in the assay with NCI/ADR-RES ovarian and in the assay with HL-60(TB) leukemia was greater than 100 µM each time. The TGI in the assay on NCI-H460 lung, in the assay on COLO 205 colon, with IGROV1 ovarian, in the assay on MDA-MB-231 breast, in the assay on RPMI-8226 leukemia and in the assay with OVCAR-3 ovarian was greater than 100 µM in each case. Further, the TGI in the assay on NCI-H226 lung, in the assay with HCC-2998 colon, in the assay on NCI/ADR-RES ovarian and with HL-60(TB) leukemia was greater than 100 µM each time.

In the case of `O=C1CCCC1C(=O)Nc1ccc2ccccc2c1` (stereo not drawn), the TGI in the assay with NCI-H460 lung, in the assay with COLO 205 colon, with IGROV1 ovarian, in the assay on MDA-MB-231 breast, in the assay with RPMI-8226 leukemia and with OVCAR-3 ovarian was greater than 100 µM throughout. The TGI in the assay on NCI-H226 lung, in the assay on HCC-2998 colon, with NCI/ADR-RES ovarian and with HL-60(TB) leukemia was greater than 100 µM throughout.

Consider `CC1(CCCC2(C)CCNC2=O)OCCO1` (stereo not drawn), for which the TGI with NCI-H460 lung, in the assay on COLO 205 colon, in the assay with IGROV1 ovarian, in the assay on MDA-MB-231 breast, in the assay on RPMI-8226 leukemia and with OVCAR-3 ovarian was greater than 10 µM each time. Besides, the TGI with NCI-H226 lung, with HCC-2998 colon, with NCI/ADR-RES ovarian and with HL-60(TB) leukemia was greater than 10 µM in each case.
